Assay results taken from patent publication US9221792B2, “N-(4-(azetidine-1-carbonyl) phenyl)-(hetero-) arylsulfonamide derivatives as pyruvate kinase M2 (PMK2) modulators” (AGIOS PHARMACEUTICALS, INC, priority 2010, dated 2015).

Molecular target: PKM2 (Homo sapiens, UniProt P14618)
Experiment: PKM2 Assay (activation, LDH-coupled NADH absorbance at 340 nm)
Format: biochemical
Conditions: activation of PKM2; PKM2 50 ng/well, ADP 0.7 mM, PEP 0.15 mM, room temperature (25° C.); read-out: AC50
Method: • PKM2 stock enzyme solution was diluted in Reaction Buffer • 2 μL of compound was added into each well first, and then 180 μL of the Reaction Mix was added. • Reaction mixture with compound (without ADP) were incubated for 30 minutes at 4° C. • Plates were re-equilibrated to room temperature prior to adding 20 μL ADP to initiate the reaction. • Reaction progress was measured as changes in absorbance at 340 nm wavelength at room temperature (25° C.) Reaction Mix: PKM2 (50 ng/well), ADP (0.7 mM), PEP (0.15 mM), NADH (180 μM), LDH (2 units) in Reaction Buffer Reaction Buffer: 100 mM KCl, 50 mM Tris pH 7.5, 5 mM MgCl2, 1 mM DTT, 0.03% BSA.
Certain compounds of Formula I were tested in the above-described assay. A compound described herein may be tested for its ability to activate PKM2. The activation activity of these compounds is represented as an AC50 in Table 2 and throughout the application. […] “B” refers to an activator of PKM2 with an EC50 between 100 nM and 1 μM. “C” refers to an activator of PKM2 with an EC50 between 1 μM and 10 μM. “D” refers to an activator of PKM2 with an EC50 greater than 10 μM. “NA” refers to data that is not available.

PKM2, sequence (P14618 whole entry): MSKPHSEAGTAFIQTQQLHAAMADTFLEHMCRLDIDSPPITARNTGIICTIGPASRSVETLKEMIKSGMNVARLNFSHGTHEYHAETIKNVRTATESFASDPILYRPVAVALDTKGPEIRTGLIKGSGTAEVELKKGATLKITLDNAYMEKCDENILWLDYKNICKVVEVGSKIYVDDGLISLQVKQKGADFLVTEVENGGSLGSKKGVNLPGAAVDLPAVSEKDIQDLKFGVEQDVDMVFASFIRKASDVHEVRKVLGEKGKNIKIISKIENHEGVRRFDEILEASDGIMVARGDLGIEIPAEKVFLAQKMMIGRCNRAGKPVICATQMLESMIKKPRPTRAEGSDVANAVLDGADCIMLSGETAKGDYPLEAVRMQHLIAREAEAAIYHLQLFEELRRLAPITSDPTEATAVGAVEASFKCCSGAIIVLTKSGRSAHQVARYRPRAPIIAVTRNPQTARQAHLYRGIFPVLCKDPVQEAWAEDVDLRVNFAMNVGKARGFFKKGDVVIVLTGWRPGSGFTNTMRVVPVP

| SMILES | AC50 [µM] |
| --- | --- |
| O=C(c1ccc(NS(=O)(=O)c2cccc3cccnc23)c(F)c1)N1CC(Oc2ccccc2)C1 [Compound 107] | 0.1 to 1 |
| O=C(c1ccc(NS(=O)(=O)c2cccc3cccnc23)cc1)N1CC(Nc2ccccc2)C1 [Compound 112] | < 0.1 |
| Cc1cc(C(=O)N2CC(O)(c3ccccc3)C2)ccc1NS(=O)(=O)c1cccc2cccnc12 [Compound 137] | 0.1 to 1 |
| O=C(c1ccc(NS(=O)(=O)c2cccc3cccnc23)cc1)N1CC(Oc2ccccc2)C1 [Compound 100] | 0.1 to 1 |
| CN(Cc1ccccc1)C1CN(C(=O)c2ccc(NS(=O)(=O)c3cccc4cccnc34)cc2)C1 [Compound 146] | 0.1 to 1 |
| Cc1cc(C(=O)N2CC(OC(=O)Nc3ccccn3)C2)ccc1NS(=O)(=O)c1cccc2cccnc12 [Compound 155, 1-(3-Methyl-4-(quinoline-8-sulfonamido)benzoyl)azetidin-3-yl pyridin-2-ylcarbamate] | 0.1 to 1 |
| COc1ccccc1NC1CN(C(=O)c2ccc(NS(=O)(=O)c3cccc4cccnc34)cc2)C1 [Compound 113] | < 0.1 |
| COc1cccnc1NC1CN(C(=O)c2ccc(NS(=O)(=O)c3cccc4cccnc34)c(C)c2)C1 [Compound 149] | < 0.1 |
| Cc1cc(C(=O)N2CC(O)(Cc3ccccc3)C2)ccc1NS(=O)(=O)c1cccc2cccnc12 [Compound 131, N-(4-(3-benzyl-3-hydroxyazetidine-1-carbonyl)-2-methylphenyl) quinoline-8-sulfonamide] | < 0.1 |
| Cc1cc(C(=O)N2CC(C)(O)C2)ccc1NS(=O)(=O)c1cccc2cccnc12 [Compound 144] | 1 to 10 |
| Cc1cc(C(=O)N2CC(NC(=O)NC(C)C)C2)ccc1NS(=O)(=O)c1cccc2cccnc12 [Compound 164] | 0.1 to 1 |
| O=C(NC1CN(C(=O)c2ccc(NS(=O)(=O)c3cccc4cccnc34)c(F)c2)C1)c1ccccn1 [Compound 121, N-(1-(3-Fluoro-4-(quinoline-8-sulfonamido)benzoyl)azetidin-3-yl)picolinamide] | 1 to 10 |
| COc1cc(NS(=O)(=O)c2cccc3cccnc23)ccc1C(=O)N1CC(O)(c2ccccc2)C1 [Compound 138] | < 0.1 |
| CC(C)NC(=O)OC1CN(C(=O)c2ccc(NS(=O)(=O)c3cccc4cccnc34)c(F)c2)C1 [Compound 134, 1-(3-Fluoro-4-(quinoline-8-sulfonamido)benzoyl)azetidin-3-yl isopropylcarbamate] | 1 to 10 |
| CC1(O)CN(C(=O)c2ccc(NS(=O)(=O)c3cccc4cccnc34)cc2)C1 [Compound 126] | > 10 |
| O=C(c1ccc(NS(=O)(=O)c2cccc3cccnc23)cc1)N1CC(=Cc2ccccc2)C1 [Compound 165] | 0.1 to 1 |
| O=C(c1ccc(NS(=O)(=O)c2cccc3cccnc23)cc1)N1CC(NCc2ccccc2)C1 [Compound 147, N-(4-(3-(benzylamino)azetidine-1-carbonyl)phenyl)quinoline-8-sulfonamide] | 0.1 to 1 |
| CC(C)NC(=O)OC1CN(C(=O)c2ccc(NS(=O)(=O)c3cccc4cccnc34)cc2)C1 [Compound 135, 1-(4-(Quinoline-8-sulfonamido)benzoyl)azetidin-3-yl isopropylcarbamate] | 1 to 10 |
| O=C(c1ccc(NS(=O)(=O)c2cccc3cccnc23)c(F)c1)N1CC(Nc2ccccc2)C1 [Compound 118] | 0.1 to 1 |
| Cc1cc(C(=O)N2CC(NC(=O)c3ccccn3)C2)ccc1NS(=O)(=O)c1cccc2cccnc12 [Compound 103, N-(1-(3-Methyl-4-(quinoline-8-sulfonamido)benzoyl)azetidin-3-yl)picolinamide] | 0.1 to 1 |

| SMILES | AC50 [µM] |
| --- | --- |
| O=C(NC1CN(C(=O)c2ccc(S(=O)(=O)Nc3cccc4cccnc34)cc2)C1)c1ccccn1 [Compound 104] | > 10 |
| Cc1cc(C(=O)N2CC(OC(=O)NC(C)C)C2)ccc1NS(=O)(=O)c1cccc2cccnc12 [Compound 132, 1-(3-Methyl-4-(quinoline-8-sulfonamido)benzoyl)azetidin-3-yl isopropylcarbamate] | 0.1 to 1 |
| COc1ccccc1N(C)C1CN(C(=O)c2ccc(NS(=O)(=O)c3cccc4cccnc34)cc2)C1 [Compound 117] | 0.1 to 1 |
| COc1cc(C(=O)N2CC(Oc3ccccc3OC)C2)ccc1NS(=O)(=O)c1cccc2cccnc12 [Compound 158] | < 0.1 |
| COc1cc(NS(=O)(=O)c2cccc3cccnc23)ccc1C(=O)N1CC(OC(=O)Nc2ccccn2)C1 [Compound 157, 1-(2-Methoxy-4-(quinoline-8-sulfonamido)benzoyl)azetidin-3-yl pyridin-2-ylcarbamate] | 0.1 to 1 |
| Cc1cc(C(=O)N2CC(OCc3ccccc3)C2)ccc1NS(=O)(=O)c1cccc2cccnc12 [Compound 120, N-(4-(3-(benzyloxy)azetidine-1-carbonyl)-2-methylphenyl)quinoline-8-sulfonamide] | 0.1 to 1 |
| COc1cc(NS(=O)(=O)c2cccc3cccnc23)ccc1C(=O)N1CC(O)(Cc2ccccc2)C1 [Compound 130, N-(4-(3-benzyl-3-hydroxyazetidine-1-carbonyl)-3-methoxyphenyl)quinoline-8-sulfonamide] | < 0.1 |
| CC1(O)CN(C(=O)c2ccc(NS(=O)(=O)c3cccc4cccnc34)c(F)c2)C1 [Compound 125] | > 10 |
| COc1ccccc1OC1CN(C(=O)c2ccc(NS(=O)(=O)c3cccc4cccnc34)cc2OC)C1 [Compound 150] | < 0.1 |
| O=C(c1ccc(NS(=O)(=O)c2cccc3cccnc23)cc1)N1CC(O)(Cc2ccccc2)C1 [Compound 101, N-(4-(3-benzyl-3-hydroxyazetidine-1-carbonyl)phenyl)quinoline-8-sulfonamide] | < 0.1 |
| O=C(Nc1ccccn1)OC1CN(C(=O)c2ccc(NS(=O)(=O)c3cccc4cccnc34)c(F)c2)C1 [Compound 162, 1-(3-Fluoro-4-(quinoline-8-sulfonamido)benzoyl)azetidin-3-yl pyridin-2-ylcarbamate] | > 10 |
| COc1ccccc1OC1CN(C(=O)c2ccc(NS(=O)(=O)c3cccc4cccnc34)cc2)C1 [Compound 129] | 0.1 to 1 |
| COc1ncccc1NC1CN(C(=O)c2ccc(NS(=O)(=O)c3cccc4cccnc34)c(C)c2)C1 [Compound 148] | 0.1 to 1 |
| O=C(c1ccc(NS(=O)(=O)c2cccc3cccnc23)cc1)N1CC(OCc2ccccc2)C1 [Compound 108, N-(4-(3-(benzyloxy)azetidine-1-carbonyl)phenyl)quinoline-8-sulfonamide] | 0.1 to 1 |
| O=C(c1ccc(S(=O)(=O)Nc2cccc3cccnc23)cc1)N1CC(OCc2ccccc2)C1 [Compound 119] | 1 to 10 |
| COc1ccccc1NC1CN(C(=O)c2ccc(NS(=O)(=O)c3cccc4cccnc34)c(F)c2)C1 [Compound 115] | 0.1 to 1 |
| O=C(NC1CN(C(=O)c2ccc(NS(=O)(=O)c3cccc4cccnc34)cc2)C1)c1ccccn1 [Compound 111, N-(1-(4-(Quinoline-8-sulfonamido)benzoyl)azetidin-3-yl)picolinamide] | 1 to 10 |
| Cc1cc(C(=O)N2CC(O)C2)ccc1NS(=O)(=O)c1cccc2cccnc12 [Compound 142] | 1 to 10 |
| O=C(Nc1ccccn1)OC1CN(C(=O)c2ccc(NS(=O)(=O)c3cccc4cccnc34)cc2)C1 [Compound 161, 1-(4-(Quinoline-8-sulfonamido)benzoyl)azetidin-3-ylpyridin-2-ylcarbamate] | 1 to 10 |
